Data reported in the supplement of paper PMC11208160.

Assay: recombinant UMI read abundance after kanamycin selection (control-corrected) (log10(CPM+1)); higher = more efficient recombination; extreme values may be limits of the assay; sequences stand for … in AGTGCAGAGAAAATCGGCCAGTTTTCTCTGCCTGCAGTCCGCATGCCGTGGGACCCCTTGGGTTCTAACCTGTTGCCTAGATTTATGCAGCGGACTGCCTTTCTCCCAAAGTGATAAACCGG…AGGTTGGTTTCACT; site = the 11-nt donor
Outline: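 The measure is log10(CPM+1) for recombinant UMIs. These were PCR-amplified across the donor–target junction and sequenced after Escherichia coli carrying a donor and donor-binding-loop pair library and a target plasmid with T7-inducible IS621 bridge recombinase was plated on IPTG (0.07 mM) plus kanamycin or unselected. CPM were averaged over two replicates and scaled by control-derived factors.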
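Note: IS621 bridge recombinase in Escherichia coli cells against a fixed T5 target plasmid.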

| Sequence | recombinant UMI read abundance (log10) |
| --- | --- |
| CGGACTTCATGGACCGGTTTTCCCGGTAATCCGTATTTGCT (site CGGACTTCTAG) | 2.17 |
| CGGAGTACATGGACCGGTTTTCCCGGTAATCCGTATTTGTT (site CGGAATCCTAA) | 0 |
| CGGAGTACATGGACCGGTTTTCCCGGTAATCCGTATTTGTT (site CGGAGTACTAA) | 2.14 |
| CGGAGTCCATGGACCGGTTTTCCCGGTAATCCGTATTTGAT (site CGGAATCCTAA) | 0.0131 |
| CGGAGTCCATGGACCGGTTTTCCCGGTAATCCGTATTTGAT (site CGGAGTCCTAT) | 1.98 |
| CGGATATCATGGACCGGTTTTCCCGGTAATCCGTATTTGCT (site CGGAAATCTAG) | 0 |
| CGGATATCATGGACCGGTTTTCCCGGTAATCCGTATTTGCT (site CGGACATCTAG) | 0 |
| CGGATATCATGGACCGGTTTTCCCGGTAATCCGTATTTGCT (site CGGAGATCTAG) | 0 |
| CGGATATCATGGACCGGTTTTCCCGGTAATCCGTATTTGCT (site CGGATATCTAG) | 1.51 |
| CGGATGTCATGGACCGGTTTTCCCGGTAATCCGTATTTGTG (site CGGATGTCTCA) | 2.74 |
| CGGATTCCATGGACCGGTTTTCCCGGTAATCCGTATTTGTT (site CGGAATCCTAA) | 0.00458 |
| CGGATTCCATGGACCGGTTTTCCCGGTAATCCGTATTTGTT (site CGGACTCCTAA) | 0.0161 |
| CGGATTCCATGGACCGGTTTTCCCGGTAATCCGTATTTGTT (site CGGAGTCCTAA) | 0.0137 |
| CGGATTCCATGGACCGGTTTTCCCGGTAATCCGTATTTGTT (site CGGATTCCTAA) | 0.599 |
| CGGCAGGCATGGACCGGTTTTCCCGGTAATCCGTATTTGAT (site CGGCAGGCTAT) | 2.21 |
| CGGCATCCATGGACCGGTTTTCCCGGTAATCCGTATTTGGT (site CGGAATCCTAA) | 0 |
| CGGCATCCATGGACCGGTTTTCCCGGTAATCCGTATTTGGT (site CGGCATCCTAC) | 0.00636 |
| CGGCATCCATGGACCGGTTTTCCCGGTAATCCGTATTTGTT (site CGGAATCCTAA) | 0 |
| CGGCATCCATGGACCGGTTTTCCCGGTAATCCGTATTTGTT (site CGGCATCCTAA) | 0.467 |

| Sequence | recombinant UMI read abundance (log10) |
| --- | --- |
| CGGCATCCATGGACCGGTTTTCCCGGTAATCCGTATTTGTT (site CGGGATCCTAA) | 0.0034 |
| CGGCATCCATGGACCGGTTTTCCCGGTAATCCGTATTTGTT (site CGGTATCCTAA) | 0.0136 |
| CGGCCAACATGGACCGGTTTTCCCGGTAATCCGTATTTGTC (site CGGCCAACTGA) | 1.56 |
| CGGCGCTCATGGACCGGTTTTCCCGGTAATCCGTATTTGAT (site CGGCGCTCTAT) | 2.65 |
| CGGCGTACATGGACCGGTTTTCCCGGTAATCCGTATTTGCT (site CGACGTACTAG) | 1.63 |
| CGGCGTACATGGACCGGTTTTCCCGGTAATCCGTATTTGCT (site CGCCGTACTAG) | 0.201 |
| CGGCGTACATGGACCGGTTTTCCCGGTAATCCGTATTTGCT (site CGGCGTACTAG) | 2.38 |
| CGGCGTACATGGACCGGTTTTCCCGGTAATCCGTATTTGCT (site CGTCGTACTAG) | 0 |
| CGGCGTACATGGACCGGTTTTCCCGGTAATCCGTATTTGTC (site CGGCGTACTGA) | 2.31 |
| CGGCGTGCATGGACCGGTTTTCCCGGTAATCCGTATTTGAC (site CGGCGTGCTGT) | 2.82 |
| CGGCTTCCATGGACCGGTTTTCCCGGTAATCCGTATTTGGA (site CGGCTTCCTTC) | 0.00516 |
| CGGCTTGCATGGACCGGTTTTCCCGGTAATCCGTATTTGCC (site CGGCTTGCTGG) | 0.904 |
| CGGGAAACATGGACCGGTTTTCCCGGTAATCCGTATTTGCA (site CAGGAAACTTG) | 2 |
| CGGGAAACATGGACCGGTTTTCCCGGTAATCCGTATTTGCA (site CCGGAAACTTG) | 1.45 |
| CGGGAAACATGGACCGGTTTTCCCGGTAATCCGTATTTGCA (site CGGGAAACTTG) | 0.914 |
| CGGGAAACATGGACCGGTTTTCCCGGTAATCCGTATTTGCA (site CTGGAAACTTG) | 1.04 |
| CGGGAACCATGGACCGGTTTTCCCGGTAATCCGTATTTGCT (site CGGGAACCTAA) | 0 |
| CGGGAACCATGGACCGGTTTTCCCGGTAATCCGTATTTGCT (site CGGGAACCTAC) | 0 |
